Results on 4 substances are retold here after US20100093001A1 (priority 2006, published 2010).

Procedure for neuronal cells: Amyloid-beta-42 was incubated for one week at 1 mg/mL in 50mM Tris-HCl pH 7.4 and controlled the presence of amyloid-beta-42 fibers by electron microscopy. These mature amyloid-beta-42 (Aβ42) fibers were subsequently harvested by centrifugation and added to primary hippocampal mouse neurons and differentiated N2A cells at a final concentration of 5 μM.

Consider H-ISFLIF-OH [NH2—ISFLIF—COOH], for which the cytotoxicity entry with primary neurons is reported as “dramatic cytotoxicity”.

For H-KVQIIN-OH [NH2—KVQIIN—COOH], in the series on primary neurons, the cytotoxicity entry was “dramatic cytotoxicity”.

For the substance H-STVIIE-OH [NH2—STVIIE—COOH], in the series with primary neurons, the cytotoxicity entry is on record as “dramatic cytotoxicity”.

Consider ganglioside GM1, for which the “N. Red (neutral red incorporation)” value in the series on neuronal cells is on record as 36.1 ± 2.9.
